Data taken from US20200115357A1, “LIVER X RECEPTORS (LXR) MODULATORS” (Phenex-FXR GmbH, priority 2017, published 2020).
Read-outs that look alike come from different tables or passages of the source.

What was measured:
[1] = target: T1, LXRβ ligand-binding domain (LBD) (Homo sapiens, UniProt P55055, DUP175-175); experiment: LXR Gal4 reporter transient transfection assay (M2H), Gal4β LBD; type: cell-based; conditions: HEK293 cells; read-out: M2H Gal4β LBD activity range (EC50)
T1 construct: LXRβ (amino acids 156-461); expressed in transfected cells; host or cells: HEK293
T1 sequence (P55055 with tags, fused parts or gaps DUP175-175): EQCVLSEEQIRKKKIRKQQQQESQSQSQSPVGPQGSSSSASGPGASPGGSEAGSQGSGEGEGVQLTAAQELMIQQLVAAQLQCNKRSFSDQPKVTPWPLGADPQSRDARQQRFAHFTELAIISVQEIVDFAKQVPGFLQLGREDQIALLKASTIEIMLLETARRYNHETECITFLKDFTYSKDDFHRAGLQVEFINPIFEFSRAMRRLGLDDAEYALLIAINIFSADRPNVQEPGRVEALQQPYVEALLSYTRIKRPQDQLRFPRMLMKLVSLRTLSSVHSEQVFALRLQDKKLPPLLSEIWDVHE
Description: (§1) The tested compounds were usually dissolved, tested and stored as 20 mM stock solutions in DMSO. Since sulfonyl acetic acid derivatives tend to decarboxylate under these conditions, these stock solutions were prepared, tested and stored as 20 mM DMSO stock solutions containing 100 mM trifluoroacetic acid (5 equivalents). Sulfonyl acetic acid derivatives are shelf stable as solid at rt for long time as reported by Griesbrecht et al. (Synlett 2010:374) or Faucher et al. (J. Med. Chem. 2004; 47:18).
(§2) LXR Gal4 Reporter Transient Transfection Assays
(§3) LXRα and LXRβ activity status was determined via detection of interaction with coactivator and corepressor proteins in mammalian two-hybrid experiments (M2H). For this, via transient transfection the full length (FL) proteins of LXRα (amino acids 1-447; NP005684; SEQ ID NO:7) or LXRβ-(amino acids 1-461; NP009052; SEQ ID NO:8) or the ligand-binding domains (LBD) of LXRα (amino acids 155-447 SEQ ID NO:3) or LXRβ (amino acids 156-461; SEQ ID NO:4) were expressed from pCMV-AD (Stratagene) as fusions to the transcriptional activation domain of NFkB. As cofactors, domains of either the steroid receptor coactivator 1 (SRC1; amino acids 552-887; SEQ ID NO:5) or of the corepressor NCoR (amino acids 1903-2312 SEQ ID NO:6) were expressed as fusions to the DNA binding domain of the yeast transcription factor GAL4 (from pCMV-BD; Stratagene). Interaction was monitored via activation of a coexpressed Firefly Luciferase Reporter gene under control of a promoter containing repetitive GAL4 response elements (vector pFRLuc; Stratagene). Transfection efficiency was controlled via cotransfection of constitutively active pRL-CMV Renilla reniformis luciferase reporter (Promega). HEK293 cells were grown in minimum essential medium (MEM) with 2 mM L-glutamine and Earle's balanced salt solution supplemented with 8.3% fetal bovine serum, 0.1 mM non-essential amino acids, 1 mM sodium pyruvate, at 37° C. in 5% CO2. 3.5×10^4 cells/well were plated in 96-well cell culture plates in growth medium supplemented with 8.3% fetal bovine serum for 16-20 h to ˜90% confluency. For transfection, medium was taken off and LXR and cofactor expressing plasmids as well as the reporter plasmids are added in 30 μL OPTIMEM/well including polyethylene-imine (PEI) as vehicle. Typical amounts of plasmids transfected/well: pCMV-AD-LXR (5 ng), pCMV-BD-cofactor (5 ng), pFR-Luc (100 ng), pRL-CMV (0.5 ng). Compound stocks were prepared in DMSO, prediluted in MEM to a total volume of 120 μL, and added 4 h after addition of the transfection mixture (final vehicle concentration not exceeding 0.2%). Cells were incubated for additional 16 h, lysed for 10 min in 1× Passive Lysis Buffer (Promega) and Firefly and Renilla luciferase activities were measured sequentially in the same cell extract using buffers containing D-luciferine and coelenterazine, respectively. Measurements of luminescence were done in a BMG-Iuminometer.

[2] = target: T2, GST-LXRβ ligand-binding domain (Homo sapiens, UniProt P55055, DUP175-175); experiment: TR-FRETβ activity assay (LXRβ-LBD / NCoA3 coactivator peptide, prestimulated with 24(S)-25-epoxycholesterol); type: biochemical; design: key to behavior in FRET assay: ag=agonist; ia=inverse agonist; conditions: for EC50: 1 μM 24(S)-25-epoxycholesterol as prestimulating agonist, read-out: FRETβ activity range (EC50); for behavior in FRET assay: agonist or inverse agonist
T2 construct: amino acids 156-461; NP009052; made in house; host or cells: E. coli
T2 sequence (P55055 with tags, fused parts or gaps DUP175-175): T1 sequence (P55055 with tags, fused parts or gaps DUP175-175)
In short: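 E. coli-expressed GST-LXRβ LBD (aa 156-461) at 76 nM with biotinylated NCoA3 coactivator peptide (400 nM), in 240 mM KCl, BSA and Triton-X-100. Anti-GST-Tb cryptate/streptavidin-XL665 TR-FRET after 1 h equilibration at 4 °C, excitation 340 nm, emission 615 and 665 nm. Run in triplicate.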

[3] = target: T3, LXRα ligand-binding domain (LBD) (Homo sapiens, UniProt Q13133); experiment: LXR Gal4 reporter transient transfection assay (M2H), Gal4α LBD; type: cell-based; conditions: HEK293 cells; for EC50: read-out: M2H Gal4α LBD activity range (EC50)
T3 construct: expressed in transfected cells; host or cells: HEK293
T3 sequence (Q13133 155-447): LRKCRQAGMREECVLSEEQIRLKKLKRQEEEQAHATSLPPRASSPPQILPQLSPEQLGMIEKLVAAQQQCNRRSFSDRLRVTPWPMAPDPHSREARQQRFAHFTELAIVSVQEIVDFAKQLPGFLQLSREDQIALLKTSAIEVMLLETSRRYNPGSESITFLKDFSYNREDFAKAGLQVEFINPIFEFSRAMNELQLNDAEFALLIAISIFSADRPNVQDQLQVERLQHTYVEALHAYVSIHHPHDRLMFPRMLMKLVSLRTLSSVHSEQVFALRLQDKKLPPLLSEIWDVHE
Description: as §1, §2, §3

[4] = rat liver microsomes; cited from earlier work
[5] = Pharmacokinetics in mice, blood and liver exposure via LC-MS; type: in vivo; conditions: for oral bioavailability (in words): mice, oral administration; for blood exposure, 4 h / liver exposure, 4 h: po, Dose (mg) 20, C57BL/6J mice, 4 h after administration
Description: The pharmacokinetics of different sulfonamides was assessed in mice after single dosing and oral and intraperitoneal administrations. Blood and liver exposure was measured via LC-MS.
The study design was as follows:
Animals: C57BL/6J (Janvier) males
Diet: standard rodent chow
Vehicle for i.p. injection: 0.5% HPMC (w:v) in water, injection volume: <5 mL/kg
Animal handling: animals were withdrawn from food at least 12 h before administration
Design: single dose oral and bid ip administration, n=3 animals per group
Sacrifice: at t=4 h after administration
Bioanalytics: LC-MS of liver and blood samples

[6] = human liver microsomes; cited from earlier work
LXR = conditions: acid formed by ester cleavage of SR9238; cited from earlier work

EC50 [1] | EC50 [2] | behavior in FRET assay [2] | EC50 [3] | SMILES | other results
< 100 nM | 100 to 1000 nM | ia | 100 to 1000 nM | Cc1cc(C)c(S(=O)(=O)N(Cc2ccc(C(F)(F)F)o2)CC2CC=C(c3cccc(C(C)(C)C(=O)O)c3)CC2)c(C)c1 (centres unmarked) [Example 19, 2-Methyl-2-(4′-(((2,4,6-trimethyl-N-((5-(trifluoromethyl)furan-2-yl)methyl)phenyl)sulfon-amido)methyl)-2′,3′,4′,5′-tetrahydro-[1,1′-biphenyl]-3-yl)propanoic acid] | –
100 to 1000 nM | 1000 to 10000 nM | ia | – | Cc1cc(C)c(S(=O)(=O)N(Cc2ccc(C(F)(F)F)o2)CC2CCC(c3cccc(C(C)(C)C(=O)O)c3)CC2)c(C)c1 (centres unmarked) [Example 19/1] | M2H Gal4α LBD activity range (EC50) [3]: inactive
< 100 nM | 1000 to 10000 nM | ia | 1000 to 10000 nM | COc1cc(-c2ccc3c(c2)C(C)(C)C(=O)OC3)ccc1CN(Cc1ccc(C(F)(F)F)o1)S(=O)(=O)c1c(C)ccc2ccccc12 [Example 22, N-(4-(4,4-Dimethyl-3-oxoisochroman-6-yl)-2-methoxybenzyl)-2-methyl-N-((5-(trifluoro-methyl)furan-2-yl)methyl)naphthalene-1-sulfonamide] | –
< 100 nM | 100 to 1000 nM | ia | 100 to 1000 nM | Cc1cc(C)c(S(=O)(=O)N(Cc2ccc(-c3cccc(CCC(=O)O)c3)cc2)Cc2ccc(C(F)(F)F)o2)c(C)c1 [Example 25, 3-(4′-(((2,4,6-Trimethyl-N-((5-(trifluoromethyl)furan-2-yl)methyl)phenyl)sulfonamido)methyl)-[1,1′-biphenyl]-3-yl)propanoic acid] | –
1000 to 10000 nM | 1000 to 10000 nM | ia | 1000 to 10000 nM | Cc1cc(C)c(S(=O)(=O)N(Cc2ccc(-c3cccc(S(=O)(=O)NCC(=O)O)c3)cc2)Cc2ccc(C(F)(F)F)o2)c(C)c1 [Example 25/1] | –
100 to 1000 nM | > 10000 nM | ia | 1000 to 10000 nM | Cc1cc(C)c(S(=O)(=O)N(Cc2ccc(-c3cccc(C(=O)O)c3)cc2)Cc2ccc(C(F)(F)F)o2)c(C)c1 [Example C6, 4′-(((2,4,6-Trimethyl-N-((5-(trifluoromethyl)furan-2-yl)methyl)phenyl)sulfonamido)methyl)-[1,1′-biphenyl]-3-carboxylic acid] | –
100 to 1000 nM | 1000 to 10000 nM | ia | 100 to 1000 nM | Cc1cc(C)c(S(=O)(=O)N(Cc2ccc(-c3cccc(Cc4nn[nH]n4)c3)cc2)Cc2ccc(C(F)(F)F)o2)c(C)c1 [Example C7, N-((3′-((2H-Tetrazol-5-yl)methyl)-[1,1′-biphenyl]-4-yl)methyl)-2,4,6-trimethyl-N-((5-(trifluoro-methyl)furan-2-yl)methyl)benzenesulfonamide] | –
– | – | – | – | Cc1cc(C)c(S(=O)(=O)N(Cc2ccc(-c3cccc(S(C)(=O)=O)c3)cc2)Cc2ccc(C(F)(F)F)o2)c(C)c1 [GSK2033, reference compound] | clearance (Clint) [4]: > 1.0 mL/min/mg prot; oral bioavailability (in words) [5]: not orally bioavailable; blood exposure, 4 h [5]: (14.4 ng/mL); liver exposure, 4 h [5]: (9.6 ng/mL); clearance (Clint) [6]: > 1.0 mL/min/mg prot
– | – | – | – | CCOC(=O)c1ccc(CN(Cc2ccc(-c3cccc(S(C)(=O)=O)c3)cc2)S(=O)(=O)c2c(C)cc(C)cc2C)o1 [SR9238, reference compound] | oral bioavailability (in words) [5]: not orally bioavailable; blood exposure, 4 h [5]: po: below LLOQ; liver exposure, 4 h [5]: po: below LLOQ
– | – | – | – | Cc1cc(C)c(S(=O)(=O)N(Cc2ccc(-c3cccc(S(C)(=O)=O)c3)cc2)Cc2ccc(C(=O)O)o2)c(C)c1 [SR10389] | activity on LXR (in words) (LXR): inactive

SMILES | EC50 [1] | EC50 [2] | behavior in FRET assay [2] | EC50 [3] | other results
COc1cc(-c2ccc(CO)c(C(C)(C)C(=O)[O-])c2)ccc1CN(Cc1ccc(C(F)(F)F)o1)S(=O)(=O)c1c(C)ccc2ccccc12.[Na+] [Example 23, Sodium 2-(4-(hydroxymethyl)-3′-methoxy-4′-(((2-methyl-N-((5-(trifluoromethyl)furan-2-yl)methyl)naphthalene)-1-sulfonamido)methyl)-[1,1′-biphenyl]-3-yl)-2-methylpropanoate] | < 100 nM | 100 to 1000 nM | ia | < 100 nM | –
